Results reported in patent US20080293647A1, “Combined Use Of Vitamin D Derivatives And Anti-Proliferative Agents For Treating Bladder Cancer” (priority 2004, published 2008).
Values joined by “and” are separate entries in the source; they are usually repeats but may differ in a detail not shown here. Identical values can stand only once. Like-named read-outs stand apart in the source and are kept apart here. Blank lines part the entries; values can stand above or below the compound they belong to.

Columns and labels:
[1] = system: RT112; assay: Inhibition of cell proliferation, RT112 human bladder cancer cells (CyQuant); format: cell-based; conditions: read-out: Bladder Cancer Cell Lines IC50 (μM) RT112
Procedure: (§1) After an additional 96-h culture, the medium was removed and the plates frozen at −80° C. Cell proliferation was evaluated using CyQuant cell proliferation assay kit from Molecular Probes (Eugene, Oreg.).

[2] = system: RT4; assay: Inhibition of cell proliferation, RT4 human bladder cancer cells (CyQuant); format: cell-based; conditions: read-out: Bladder Cancer Cell Lines IC50 (μM) RT4
Procedure: as §1

[3] = system: human bladder cancer cell lines; assay: Combination of calcitriol with chemotherapeutic agents, bladder cancer cell line proliferation, combination index method; format: cell-based; conditions: agent combined with calcitriol; combination index method (CalcuSyn)
Procedure: Proliferation was measured after an additional 96 h using CyQuant cell proliferation assay kit. Drug interactions (as shown in FIG. 1) were evaluated by the median-effect/isobologram method using CalcuSyn software (Biosoft, Cambridge, UK). Combination Indices (CI) were calculated using the non-constant ratio combination design, determining synergism or antagonism for each data point.

[4] = system: T24; assay: Inhibition of cell proliferation, T24 human bladder cancer cells (CyQuant); format: cell-based; conditions: read-out: Bladder Cancer Cell Lines IC50 (μM) T24
Procedure: as §1

[5] = Stability/compatibility of epirubicin and calcitriol solution for intravesical instillation (HPLC-UV); format: physicochemical
Procedure: Approximately 12 mg of freeze-dried Farimorubicina® powder (approx. 2 mg of epirubicin) were dissolved in water to produce a concentrated stock solution. After vortexing, the concentrated stock was diluted 1:2 using a isotonic saline containing Tween 20 at 0.1% (w/v) to provide Sample B. After further vortexing, Sample B was stored at 4° C. until use. […] The solution was mixed and stored at −20° C. until use. 100 μl of the concentrated stock solution was then taken and diluted with 900 μl of isotonic saline containing Tween 20 0.1% (w/v). After shaking the sample was stored at 4° C. until use. […] Following mixing by vortexing, the sample was stored at 5° C. and analysed using HPLC chromatography after preparation (t=0) and after 2.5 hr (t=150 min). [table]

[6] = system: 24-hydroxylase (CYP24); assay: Expression of 24-hydroxylase (CYP24) in human bladder cancer cell lines, Real Time RT-PCR; format: cell-based; conditions: 100 nM, 2 h
[7] = Homo sapiens, RT-112, 96 h, 96-h culture
[8] = Homo sapiens, RT-4, 96 h, 96-h culture
[9] = Homo sapiens, T-24, 96-h culture
[10] = combination (calcitriol 50 μg/ml + epirubicin 1 mg/ml), t = 0 min
[11] = combination (calcitriol 50 μg/ml + epirubicin 1 mg/ml), t = 150 min, stored at 5° C.
[12] = single-component solution (epirubicin 1 mg/ml; calcitriol 100 μg/ml), HPLC peak area

IC50 [1, 7]: 15.5 µM
IC50 [2, 8]: 3.3 µM
Compound: C=C1/C(=C\C=C2/CCC[C@]3(C)C(C4(C/C=C\C(O)(C(F)(F)F)C(F)(F)F)CC4)=CCC23)CC(O)C[C@@H]1O (stereo partly drawn) [1α,25-Dihydroxy-16-ene-20-cyclopropyl-23,24-Z-ene-26,27-hexafluoro-cholecalciferol]

Compound: COc1cccc2c1C(=O)c1c(O)c3c(c(O)c1C2=O)C[C@@](O)(C(=O)CO)C[C@@H]3O[C@H]1C[C@H](N)[C@H](O)[C@H](C)O1 [doxorubicin]
Synergism or antagonism on bladder cancer cell proliferation in combination with calcitriol [3]: strong synergistic effect

Compound: N.N.[Cl][Pt][Cl] [cisplatin]
Synergism or antagonism on bladder cancer cell proliferation in combination with calcitriol [3]: does not result in any additive or synergistic effect

Compound: C=C1/C(=C\C=C2/CCC[C@]3(C)C(C4(C/C=C\C(O)(C(F)(F)F)C(F)(F)F)CC4)=CCC23)CC(O)C[C@@H]1F (stereo partly drawn) [1α-Fluoro-25-hydroxy-16,23Z-diene-20-cyclopropyl-26,27-hexafluoro-cholecalciferol]
IC50 ([1]; 96-h culture): 21 µM
IC50 ([2]; 96-h culture): 3.1 µM

IC50 [1, 7]: 10.6 µM
IC50 [2, 8]: 2.3 µM
Compound: C=C1/C(=C\C=C2/CCC[C@]3(C)C(C4(C/C=C/C(O)(C(F)(F)F)C(F)(F)F)CC4)=CCC23)CC(O)C[C@@H]1O (stereo partly drawn) [1α,25-Dihydroxy-16-ene-20-cyclopropyl-23,24-E-ene-26,27-hexafluoro cholecalciferol]

IC50 [4, 9]: 99.2 µM
IC50 ([1]; Homo sapiens, RT-112, 96-h culture): 44 µM
IC50 ([2]; Homo sapiens, RT-4, 96-h culture): 72 µM
Compound: CC(C)(O)CCC[C@@H](CC[C@@H](O)C(C)(C)O)[C@H]1CC[C@H]2/C(=C/C=C3C[C@@H](O)C[C@H](O)C3)CCC[C@]12C [1,25-Dihydroxy-21-(2R,3-dihydroxy-3-methyl-butyl)-20S-19-nor-cholecalciferol]

IC50 [4, 9]: 28 µM
IC50 [1, 7]: 12 µM
IC50 [2, 8]: 16 µM
Compound: C=C1/C(=C\C=C2/CCC[C@]3(C)C([C@@H](C)C/C=C/C(O)(CC)CC)=CC[C@@H]23)C[C@@H](O)C[C@@H]1F [1-alpha-fluoro-25-hydroxy-16,23E-diene-26,27-bishomo-20-epi-cholecalciferol]

IC50 [4, 9]: 57.9 µM
IC50 [1, 7]: 25 µM
IC50 [2, 8]: 71 µM
Compound: C=C1/C(=C\C=C2/CCC[C@@]3(C)C2CCC3C(CCCC(C)(C)O)CCC(O)C(C)(C)O)C[C@@H](O)C[C@@H]1O (stereo partly drawn) [1,25-Dihydroxy-21-(2R,3-dihydroxy-3-methyl-butyl)-20R-Cholecalciferol]

IC50 [1, 7]: > 30 µM
IC50 [2, 8]: 2.6 µM
Compound: CC(C)(O)CCC[C@@H](CCC(=O)C(C)(C)O)[C@H]1CC[C@H]2/C(=C/C=C3C[C@@H](O)C[C@H](O)C3)CCC[C@]12C [1,25-dihydroxy-20S-21(3-hydroxy-3-methyl-butyl)-24-keto-19-nor-cholecalciferol]

Area (230 nm) [5, 10]: 53425733 and 53877070
Area (254 nm) [5, 10]: 44443024 and 44731107
Area (230 nm) [5, 11]: 52245312 and 50817806
Area (254 nm) [5, 11]: 43984488 and 43221785
Area (230 nm) [5, 12]: 30443828 and 30511286 and 30555666
Area (254 nm) [5, 12]: 23243121 and 23243599 and 23383366
Compound: COc1cccc2c1C(=O)c1c(O)c3c(c(O)c1C2=O)C[C@@](O)(C(=O)CO)C[C@@H]3O[C@H]1C[C@H](N)[C@@H](O)[C@H](C)O1 [epirubicin]
Synergism or antagonism on bladder cancer cell proliferation in combination with calcitriol [3]: strong synergistic effect

Compound: Nc1ccn([C@@H]2O[C@H](CO)[C@@H](O)C2(F)F)c(=O)n1 [gemcitabine]
Synergism or antagonism on bladder cancer cell proliferation in combination with calcitriol [3]: strong antagonistic effect

Compound: 1,25-Dihydroxy-21-16,23Z-diene-26,27-hexafluoro-19-nor-cholecalciferol
IC50 ([4]; 96-h culture): 58.7 µM
IC50 ([1]; 96-h culture): 24 µM
IC50 ([2]; 96-h culture): 20 µM

IC50 [4, 9]: 52.1 µM
IC50 [1, 7]: 9 µM
IC50 [2, 8]: 10 µM
Compound: C=C1/C(=C\C=C2/CCC[C@@]3(C)C2CCC3C2(CCCC(C)(C)O)CC2)CC(OC(C)=O)C[C@@H]1OC(C)=O (stereo partly drawn) [1,3-Di-O-acetyl-1,25-dihydroxy-20-cyclopropyl-cholecalciferol]

IC50 [1, 7]: 13.8 µM
IC50 [2, 8]: 1.7 µM
Compound: C=C1/C(=C\C=C2/CCC[C@]3(C)C(C4(CC#CC(O)(C(F)(F)F)C(F)(F)F)CC4)=CCC23)CC(O)C[C@@H]1O (stereo partly drawn) [1,25-Dihydroxy-16-ene-20-cyclopropyl-23,24-yne-26,27 hexafluoro-cholecalciferol]

Compound: C=C1/C(=C\C=C2/CCC[C@]3(C)C(C4(C/C=C/C(O)(C(F)(F)F)C(F)(F)F)CC4)=CCC23)CC(O)C[C@@H]1F (stereo partly drawn) [1α-Fluoro-25-hydroxy-16,23E-diene-20-cyclopropyl-26,27-hexafluoro-cholecalciferol]
IC50 ([1]; 96-h culture): 17 µM
IC50 ([2]; 96-h culture): 3.6 µM

IC50 [1, 7]: 25.5 µM
IC50 [2, 8]: 8.3 µM
Compound: C=C1/C(=C\C=C2/CCC[C@]3(C)[C@@H]([C@@H](CCCC(C)(C)O)CCC(=O)C(C)(C)O)CC[C@@H]23)C[C@@H](O)C[C@@H]1O [1,25-dihydroxy-20S-21(3-hydroxy-3-methyl-butyl)-24-keto-cholecalciferol]

Compound: C=C1/C(=C\C=C2/CCC[C@]3(C)C(C4(CC#CC(O)(C(F)(F)F)C(F)(F)F)CC4)=CCC23)CC(O)C[C@@H]1F (stereo partly drawn) [1α-Fluoro-25-hydroxy-16-ene-20-cyclopropyl-23-yne-26,27-hexafluoro-cholecalciferol]
IC50 ([1]; 96-h culture): 16.9 µM
IC50 ([2]; 96-h culture): 3.6 µM

IC50 [1, 7]: 22.7 µM
IC50 [2, 8]: 5.2 µM
Compound: C[C@]12CCC/C(=C\C=C3\CC(O)C[C@H](O)C3)C1CC=C2C1(CC#CC(O)(C(F)(F)F)C(F)(F)F)CC1 (stereo partly drawn) [14215-Dihydroxy-16-ene-20-cyclopropyl-23,41-yne-26,27-hexafluoro-19-nor-cholecalciferol]

IC50 [4, 9]: 31 µM
IC50 [1, 7]: 6 µM
IC50 [2, 8]: 17 µM
Compound: CC(=O)O[C@@H]1CC(=C/C=C2\CCC[C@]3(C)C([C@H](C)CCC(=O)C(C)(C)O)=CCC23)C[C@@H](OC(C)=O)C1 (stereo partly drawn) [1,3-O-Diacetyl-1,25-Dihydroxy-16-ene-24-Keto-19-nor-Cholecalciferol]

IC50 [1, 7]: 9.6 µM
IC50 [2, 8]: 2.2 µM
Compound: C[C@]12CCC/C(=C\C=C3\CC(O)C[C@H](O)C3)C1CC=C2C1(C/C=C\C(O)(C(F)(F)F)C(F)(F)F)CC1 (stereo partly drawn) [1α,25-Dihydroxy-16-ene-20-cyclopropyl-23,24-f-ene-2627-hexafluoro-19-nor-cholecalciferol]

IC50 [1, 7]: 14.5 µM
IC50 [2, 8]: 4.6 µM
Compound: C[C@]12CCC/C(=C\C=C3\CC(O)C[C@H](O)C3)C1CC=C2C1(C/C=C/C(O)(C(F)(F)F)C(F)(F)F)CC1 (stereo partly drawn) [1α,25-hydroxy-16-ene-20-cyclopropyl-23,24-E-ene-26,27-hexafluoro-19-nor-cholecalciferol]

IC50 [1, 7]: > 30 µM
IC50 [2, 8]: 9.9 µM
Compound: CC(C)(O)CCCC1(C2=CCC3/C(=C/C=C4/CC(O)C[C@H](O)C4)CCC[C@]23C)CC1 (stereo partly drawn) [1α,25-Dihydroxy-16-ene-20-cyclopropyl-19-nor-cholecalciferol]

IC50 [4, 9]: 69.4 µM
IC50 [1, 7]: 1 µM
IC50 [2, 8]: 62 µM
Compound: C=C1/C(=C\C=C2/CCC[C@@]3(C)C2CCC3[C@@H](CCCC(C)(C)O)CCC(O)C(C)(C)O)C[C@@H](O)C[C@@H]1O (stereo partly drawn) [1,25-Dihydroxy-21(2R,3-dihydroxy-3-methyl-butyl)-20S-Cholecalciferol]

Compound: N.N.O=C([O-])C1(C(=O)[O-])CCC1.[Pt+2] [carboplatin]
Synergism or antagonism on bladder cancer cell proliferation in combination with calcitriol [3]: does not result in any additive or synergistic effect

IC50 [1, 7]: 27.6 µM
IC50 [2, 8]: 2 µM
Compound: C=C1/C(=C\C=C2/CCC[C@]3(C)C(C4(CCCC(C)(C)O)CC4)=CCC23)CC(O)C[C@@H]1O (stereo partly drawn) [1α,25-Dihydroxy-16-ene-20-cyclopropyl-cholecalciferol]

Compound: C=C1/C(=C\C=C2/CCC[C@]3(C)C([C@H](C)CCCC(C)(C)O)CC[C@@H]23)C[C@@H](O)C[C@@H]1O (stereo partly drawn) [1,25-Dihydroxycholecalciferol]
IC50 ([1]; 96-h culture): 28.7 µM
IC50 [1, 7]: 19 µM
IC50 ([2]; 96-h culture): 26 µM
IC50 [2, 8]: 45 µM
Expression of 24-hydroxylase (CYP24) [6]: up-regulation of CYP24
Area (230 nm) [5, 10]: 2068192 and 1960823
Area (254 nm) [5, 10]: 2710511 and 2589663
Area (230 nm) [5, 11]: 2027619 and 1954501
Area (254 nm) [5, 11]: 2674857 and 2572268
Area (230 nm) [5, 12]: 3402919 and 3485146
Area (254 nm) [5, 12]: 4981173 and 5116113
